Measured values reported in patent publication US8232269B2, “Amide compounds useful in therapy” (Pfizer Inc., priority 2008, dated 2012).

target: T1, Progesterone Receptor (PR) (Homo sapiens, UniProt P06401); assay: In vitro functional assay for progesterone receptor (PR) antagonists: inhibition of progesterone-induced alkaline phosphatase expression in T47D cells; format: cell-based; details: antagonist format, 5 nM progesterone, Ki calculated from IC50 with the Cheng-Prusoff equation
T1 construct: endogenous in cells; host or cells: T47D human breast mammary carcinoma cells
T1 sequence (P06401 1-933): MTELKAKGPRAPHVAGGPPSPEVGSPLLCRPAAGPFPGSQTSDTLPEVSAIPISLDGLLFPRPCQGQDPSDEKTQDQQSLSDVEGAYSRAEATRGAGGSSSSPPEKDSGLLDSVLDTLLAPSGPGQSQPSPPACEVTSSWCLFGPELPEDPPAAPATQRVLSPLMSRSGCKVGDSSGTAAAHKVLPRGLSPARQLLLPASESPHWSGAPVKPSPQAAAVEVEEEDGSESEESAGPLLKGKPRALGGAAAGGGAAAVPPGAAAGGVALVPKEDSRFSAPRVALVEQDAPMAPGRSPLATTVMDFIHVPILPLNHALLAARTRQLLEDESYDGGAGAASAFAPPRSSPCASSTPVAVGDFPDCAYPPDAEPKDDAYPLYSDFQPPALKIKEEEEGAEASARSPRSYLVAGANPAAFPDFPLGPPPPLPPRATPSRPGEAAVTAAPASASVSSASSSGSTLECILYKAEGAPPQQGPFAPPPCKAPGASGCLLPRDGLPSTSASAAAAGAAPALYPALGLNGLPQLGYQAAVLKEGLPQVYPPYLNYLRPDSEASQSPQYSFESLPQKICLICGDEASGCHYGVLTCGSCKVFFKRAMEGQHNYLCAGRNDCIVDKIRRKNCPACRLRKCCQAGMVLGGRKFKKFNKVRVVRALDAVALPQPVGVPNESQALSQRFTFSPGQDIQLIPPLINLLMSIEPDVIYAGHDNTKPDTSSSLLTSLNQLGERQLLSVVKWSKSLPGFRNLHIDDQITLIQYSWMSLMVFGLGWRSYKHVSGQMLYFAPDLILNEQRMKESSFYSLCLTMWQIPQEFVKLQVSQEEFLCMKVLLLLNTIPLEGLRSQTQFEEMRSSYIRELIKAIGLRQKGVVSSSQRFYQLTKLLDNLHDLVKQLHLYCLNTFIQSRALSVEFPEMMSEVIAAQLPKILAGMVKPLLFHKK
Summary of the method: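 Antagonist format: T47D cells (8750/well, phenol red-free DMEM + 5% CS-FCS) given half-log compound dilutions plus 5 nM progesterone (final), incubated overnight (≥16 h) at 37 °C. Alkaline phosphatase read by CSPD chemiluminescence after freeze-thaw lysis; 0.1 μM RU-486 final defines minimum.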

For Cc1c(-c2ccc(C#N)cc2)nn(C2CC2)c1C(=O)NC(C)C [Example 85, 3-(4-Cyanophenyl)-1-cyclopropyl-N-isopropyl-4-methyl-1H-pyrazole-5-carboxamide], which Ki is on record?
The Ki was 139 nM.

For Cc1c(-c2ccc(C#N)cc2)nn(C2CC2)c1C(=O)NC[C@H](C)O [Example 86, 3-(4-Cyanophenyl)-1-cyclopropyl-N-[(2S)-2-hydroxypropyl]-4-methyl-1H-pyrazole-5-carboxamide], which Ki is on record?
Its Ki is greater than 137 nM.

For Cc1c(-c2ccc(C#N)cc2)nn(C2CC2)c1C(=O)NC[C@@H](C)O [Example 87, 3-(4-Cyanophenyl)-1-cyclopropyl-N-[(2R)-2-hydroxypropyl]-4-methyl-1H-pyrazole-5-carboxamide], which Ki is on record?
The Ki was greater than 191 nM.

Which Ki does the source give for CCNC(=O)c1c(C#N)c(-c2ccc(C#N)cc2)nn1C(C)C [Example 89, 4-Cyano-3-(4-cyanophenyl)-N-ethyl-1-isopropyl-1H-pyrazole-5-carboxamide] here?
The Ki was 7.75 nM.

Which Ki does the source give for CC(C)NC(=O)c1c(C#N)c(-c2ccc(C#N)cc2)nn1C(C)C [Example 91, 4-Cyano-3-(4-cyanophenyl)-N,1-diisopropyl-1H-pyrazole-5-carboxamide] here?
The Ki was 6.48 nM.

Which Ki does the source give for CNC(=O)c1c(C#N)c(-c2ccc(C#N)cc2)nn1C(C)C [Example 92, 4-Cyano-3-(4-cyanophenyl)-1-isopropyl-N-methyl-1H-pyrazole-5-carboxamide] here?
The Ki was 8.84 nM.

With CC(C)n1nc(-c2ccc(C#N)cc2)c(C#N)c1C(=O)NC1CC1 [Example 94, 4-Cyano-3-(4-cyanophenyl)-N-cyclopropyl-1-isopropyl-1H-pyrazole-5-carboxamide] as the compound, how does the Ki read?
The Ki was 10.6 nM.

For CC(C)NC(=O)c1c(Cc2ccccc2)c(-c2ccc(C#N)cc2)nn1C(C)C [Example 95, 4-Benzyl-3-(4-cyanophenyl)-N,1-diisopropyl-1H-pyrazole-5-carboxamide], which Ki is on record?
The Ki was 315 nM.

For CC(C)n1nc(-c2ccc(C#N)cc2)c(Cc2ccccc2)c1C(=O)NC1CC1 [Example 96, 4-Benzyl-3-(4-cyanophenyl)-N-cyclopropyl-1-isopropyl-1H-pyrazole-5-carboxamide], which Ki is on record?
Its Ki is 374 nM.

Which Ki does the source give for CCNC(=O)c1c(Cc2ccccc2)c(-c2ccc(C#N)cc2)nn1C(C)C [Example 97, 4-Benzyl-3-(4-cyanophenyl)-N-ethyl-1-isopropyl-1H-pyrazole-5-carboxamide] here?
The Ki was 399 nM.

For CC(C)n1nc(-c2ccc(C#N)cc2)c(C2CC(F)(F)C2)c1C(=O)NC1CC1 [Example 98, 3-(4-Cyanophenyl)-N-cyclopropyl-4-(3,3-difluorocyclobutyl)-1-isopropyl-1H-pyrazole-5-carboxamide], which Ki is on record?
The Ki was 208 nM.

For CNC(=O)c1c(C2CC(F)(F)C2)c(-c2ccc(C#N)cc2)nn1C(C)C [Example 99, 3-(4-Cyanophenyl)-4-(3,3-difluorocyclobutyl)-1-isopropyl-N-methyl-1H-pyrazole-5-carboxamide], which Ki is on record?
The Ki was 52.5 nM.

Which Ki does the source give for CCNC(=O)c1c(C2CC(F)(F)C2)c(-c2ccc(C#N)cc2)nn1C(C)C [Example 100, 3-(4-Cyanophenyl)-4-(3,3-difluorocyclobutyl)-N-ethyl-1-isopropyl-1H-pyrazole-5-carboxamide] here?
Its Ki is 151 nM.

For CCc1c(-c2ccc(C#N)cc2)nn(C(C)CC)c1C(=O)NC[C@H](C)O (stereo partly drawn) [Example 108, 1-sec-Butyl-3-(4-cyanophenyl)-4-ethyl-N-[(2S)-2-hydroxypropyl]-1H-pyrazole-5-carboxamide], which Ki is on record?
The Ki was 91.4 nM.

For CCc1c(-c2ccc(C#N)cc2)nn(C(C)C)c1C(=O)NCC1CC1 [Example 110, 3-(4-Cyanophenyl)-N-(cyclopropylmethyl)-4-ethyl-1-isopropyl-1H-pyrazole-5-carboxamide], which Ki is on record?
Its Ki is 8.24 nM.

Which Ki does the source give for CCc1c(-c2ccc(C#N)cc2)nn(C(C)C)c1C(=O)NC1CC1 [Example 111, 3-(4-Cyanophenyl)-N-cyclopropyl-4-ethyl-1-isopropyl-1H-pyrazole-5-carboxamide] here?
The Ki was 23.1 nM.

Which Ki does the source give for CCc1c(-c2ccc(C#N)cc2)nn(C(C)C)c1C(=O)NC [Example 112, 3-(4-Cyanophenyl)-4-ethyl-1-isopropyl-N-methyl-1H-pyrazole-5-carboxamide] here?
Its Ki is 26 nM.

Which Ki does the source give for CNC(=O)CNC(=O)c1c(C)c(-c2ccc(C#N)c(C)c2)nn1C(C)C [Example 113, 3-(4-Cyano-3-methylphenyl)-1-isopropyl-4-methyl-N-[2-(methylamino)-2-oxoethyl]-1H-pyrazole-5-carboxamide] here?
Its Ki is 27.1 nM.

With CCc1c(-c2ccc(C#N)cc2)nn(C(C)C)c1C(=O)NC[C@H](C)O [Example 114, 3-(4-Cyanophenyl)-4-ethyl-N-[(2S)-2-hydroxypropyl]-1-isopropyl-1H-pyrazole-5-carboxamide] as the compound, how does the Ki read?
The Ki was 30.9 nM.

With CCc1c(-c2ccc(C#N)cc2)nn(C(C)C)c1C(=O)NC[C@@H](C)O [Example 115, 3-(4-Cyanophenyl)-4-ethyl-N-[(2R)-2-hydroxypropyl]-1-isopropyl-1H-pyrazole-5-carboxamide] as the compound, how does the Ki read?
Its Ki is 85 nM.

For CCNC(=O)c1c(CC)c(-c2ccc(C#N)cc2)nn1C(C)C [Example 116, 3-(4-Cyanophenyl)-N,4-diethyl-1-isopropyl-1H-pyrazole-5-carboxamide], which Ki is on record?
The Ki was 32.1 nM.

Which Ki does the source give for CCc1c(-c2ccc(C#N)cc2)nn(C(C)C)c1C(=O)NC(C)C [Example 117, 3-(4-Cyanophenyl)-4-ethyl-N,1-diisopropyl-1H-pyrazole-5-carboxamide] here?
Its Ki is 36.4 nM.

For CCc1c(-c2ccc(C#N)cc2)nn(C(C)C)c1C(=O)NCC(C)(C)O [Example 118, 3-(4-Cyanophenyl)-4-ethyl-N-(2-hydroxy-2-methylpropyl)-1-isopropyl-1H-pyrazole-5-carboxamide], which Ki is on record?
The Ki was 54.8 nM.

For CCc1c(-c2ccc(C#N)cc2)nn(C(C)C)c1C(=O)NCC(=O)NC [Example 119, 3-(4-Cyanophenyl)-4-ethyl-1-isopropyl-N-[2-(methylamino)-2-oxoethyl]-1H-pyrazole-5-carboxamide], which Ki is on record?
Its Ki is greater than 145 nM.

With CNC(=O)CNC(=O)c1c(C2CC2)c(-c2ccc(C#N)c(C)c2)nn1C(C)C [Example 120, 3-(4-Cyano-3-methylphenyl)-4-cyclopropyl-1-isopropyl-N-[2-(methylamino)-2-oxoethyl]-1H-pyrazole-5-carboxamide] as the compound, how does the Ki read?
The Ki was 8.66 nM.

Which Ki does the source give for Cc1cc(-c2nn(C(C)C)c(C(=O)NC3CC3)c2C#N)ccc1C#N [Example 121] here?
Its Ki is 5.06 nM.

Which Ki does the source give for CNC(=O)c1c(C#N)c(-c2ccc(C#N)c(C)c2)nn1C(C)C [Example 122] here?
The Ki was 5.18 nM.

For Cc1cc(-c2nn(C(C)C)c(C(=O)NC(C)C)c2C#N)ccc1C#N [Example 123], which Ki is on record?
Its Ki is 5.49 nM.

Which Ki does the source give for Cc1cc(-c2nn(C(C)C)c(C(=O)NC[C@H](C)O)c2C#N)ccc1C#N [Example 124] here?
The Ki was 5.93 nM.

For CC(C)n1nc(-c2ccc(C#N)cc2)c(C2CC2)c1C(=O)NC1CCS(=O)(=O)C1 (stereo not shown) [Example 125], which Ki is on record?
The Ki was 8.28 nM.

For Cc1cc(-c2nn(C(C)C)c(C(=O)NCC(C)(C)O)c2C#N)ccc1C#N [Example 126], which Ki is on record?
Its Ki is 10.2 nM.

For Cc1c(-c2ccc(C#N)cc2)nn(C2CCOC2)c1C(=O)NCC1CC1 (stereo not shown) [Example 127], which Ki is on record?
The Ki was 11.3 nM.

For Cc1cc(-c2nn(C(C)C)c(C(=O)NC[C@@H](C)O)c2C#N)ccc1C#N [Example 128], which Ki is on record?
Its Ki is 11.9 nM.

Which Ki does the source give for CC(C)n1nc(-c2ccc(C#N)cc2)c(Cl)c1C(=O)NC[C@H](C)O [Example 129] here?
The Ki was 13.2 nM.

Which Ki does the source give for CCc1c(-c2ccc(C#N)cc2)nn(C(C)CC)c1C(=O)NCC(C)(C)O (stereo not shown) [Example 130] here?
The Ki was 14.8 nM.

Which Ki does the source give for CC(C)n1nc(-c2ccc(C#N)cc2)c(Cl)c1C(=O)NC1CC1 [Example 132] here?
Its Ki is 17.8 nM.

Which Ki does the source give for CC(C)n1nc(-c2ccc(C#N)cc2)c(C#N)c1C(=O)NC[C@@H](C)O [Example 133] here?
Its Ki is 19.3 nM.

Which Ki does the source give for CC(C)n1nc(-c2ccc(C#N)cc2)c(C#N)c1C(=O)NCC(C)(C)O [Example 134] here?
The Ki was 21.9 nM.

system: ovarian cancer patients; assay: not given; details: RU486 200 mg/day; ovarian cancer patients refractory to cisplatin and paclitaxel; cited from earlier work

For CC#C[C@]1(O)CC[C@H]2[C@@H]3CCC4=CC(=O)CCC4=C3[C@@H](c3ccc(N(C)C)cc3)C[C@@]21C [RU486, mifepristone], which “patients with a clinical response” value is on record?
The value was 26.5%.

system: Brca1/p53-deficient mice; assay: not given; details: treatment of Brca1/p53-deficient mice; cited from earlier work

With CC#C[C@]1(O)CC[C@H]2[C@@H]3CCC4=CC(=O)CCC4=C3[C@@H](c3ccc(N(C)C)cc3)C[C@@]21C [RU486, mifepristone] as the compound, how does the “effect on mammary tumorigenesis” value read?
Its value is “prevented mammary tumorigenesis”.
